Test results published in patent publication US20200121706A1, “METHOD FOR INHIBITING MYOPIA AND APPLICATION IN PREPARING DRUG” (WENZHOU MEDICAL UNIVERSITY, priority 2017, published 2020).

Key:
Assay type in all cases: in vivo, Cavia porcellus
form-deprivation myopia = experiment: Monocular form-deprivation (FD) myopia model, periocular injection; diopter by eccentric infrared photo-refractor, ocular axis parameters by A-mode ultrasound; conditions: guinea pig FD eyes, daily periocular injection, after 4 weeks
Description: (§1) The experimental animals used in this experiment were 3-week-old British shorthair three-colored guinea pigs (Cavia porcellus). Mask technique was used as a model of monocular form-deprivation (FD) myopia. In the myopic sclera HIF-1α expression experiment, the animals were randomly divided into three groups: the normal control group, FD 1 week group, and FD 1 week & 2-day recovery group. […] In the administration experiment, HIF-1α inhibitors salidroside and formononetin were administered to the form-deprived eyes by periocular injection to inhibit HIF-1α activity. The animals in the salidroside injection experiment were randomly divided into three groups: form-deprivation+solvent control group (FD+0.9% normal saline (NS)), form-deprivation+low concentration drug group (FD+SDS 1 μg), and form-deprivation+high concentration drug group (FD+SDS 10 μg). The animals in the formononetin injection experiment were randomly divided into three groups: form-deprivation+solvent control group (FD+DMSO), form-deprivation+low concentration drug group (FD+FMN 0.5 μg), and form-deprivation+high concentration drug group (FD+FMN 5 μg). Periocular injection of drugs was performed daily at 9 am for 4 weeks without treatment of the contralateral eyes. Before the experiment and after 2 weeks and 4 weeks of administration respectively, the diopter was measured with an eccentric infrared photo-refractor (EIR), and the ocular axis parameters such as vitreous chamber depth and ocular axis length were measured with amplitude-mode ultrasound (11 MHz). After the administration, the sclera was removed and the expression of HIF-1α and collagen type I were detected by Western Blot.

[1] = test system: scleral hypoxia-inducible factor-1α (HIF-1α); experiment: Western Blot of scleral HIF-1α after administration in form-deprived eyes; conditions: sclera removed after administration
Description: as §1, with “The animals in the formononetin injection experiment were randomly divided into three groups: form-deprivation+solvent control group (FD+DMSO), form-deprivation+low concentration drug group (FD+FMN 0.5 μg), and form-deprivation+high concentration drug group (FD+FMN 5 μg). Periocular injection of drugs was performed daily at 9 am for 4 weeks without treatment of the contralateral eyes.” left out

collagen type I = experiment: Western Blot of scleral collagen type I after administration in form-deprived eyes; conditions: sclera removed after administration
Description: as §1, with “The animals in the formononetin injection experiment were randomly divided into three groups: form-deprivation+solvent control group (FD+DMSO), form-deprivation+low concentration drug group (FD+FMN 0.5 μg), and form-deprivation+high concentration drug group (FD+FMN 5 μg). Periocular injection of drugs was performed daily at 9 am for 4 weeks without treatment of the contralateral eyes.” left out

## OC[C@H]1O[C@@H](OCCc2ccc(O)cc2)[C@H](O)[C@@H](O)[C@@H]1O [salidroside]
form-deprivation myopia
  extension of ocular axis (ocular axis length difference) compared with solvent-injection group: relatively smaller
  extension of vitreous chamber (vitreous chamber depth difference) compared with solvent-injection group: relatively smaller
  myopia formation (diopter difference between experimental eyes and contralateral eyes) compared with form-deprivation solvent-injection group: significantly reduced
[1]
  up-regulation of HIF-1α expression in the sclera of FDM eyes: inhibited
Collagen type I
  down-regulation of collagen (type I) expression in the sclera of FDM eyes: inhibited
